Experiments:
[1] = Highest frequency of moderate liver toxicity observed during clinical trials, expressed as a percentage. [column '% BIOL' in source]; details: human
[2] = Highest frequency of acute liver toxicity observed during clinical trials, expressed as a percentage. [column '% AIGUE' in source]; details: human
[3] = Presence of at least one case with successful reintroduction. [column 'REINT' in source]; details: human
[4] = Times to onset, minimal and maximal, observed in the indexed observations. [column 'DELAI' in source]; details: human
[5] = human
[6] = human, serum
[7] = human; remark: listed apart in the source
[8] = human; remark: listed apart in the source
[9] = human; remark: listed apart in the source
[10] = human, serum; remark: listed apart in the source
[11] = human; remark: listed apart in the source
[12] = human; remark: listed apart in the source
[13] = human; remark: listed apart in the source
[14] = human; remark: listed apart in the source
[15] = human, serum, 4383 h
[16] = human; remark: listed apart in the source
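Throughout, for Hepatotoxicity (association with vascular disease): count of indexed literature references reporting vascular liver injury in humans, e.g. peliosis hepatitis, hepatic veno-occlusive disease or Budd-Chiari syndrome.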
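Throughout, for Hepatotoxicity (benign tumour): value is a count of indexed literature references citing a benign tumour confirmed by histopathology.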
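Throughout, for Hepatotoxicity (choleostasis): human cholestatic liver injury, shown by histopathology or by peak ALT or AST elevation over alkaline phosphatase ratio below 2, value counts indexed literature reports.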
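Throughout, for Hepatotoxicity (chronic liver disease): chronic liver injury confirmed by histopathology or persistently raised serum aminotransferase activity beyond 6 months, value given as the count of indexed literature references.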
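Throughout, for Hepatotoxicity (cirrhosis): value is a count of indexed literature references reporting cirrhosis confirmed by histopathology.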
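Throughout, for Hepatotoxicity (cytolytic): human cytolytic liver injury, shown by histopathology or by a ratio above 5 of peak ALT or AST elevation to alkaline phosphatase elevation, value counts indexed references.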
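Throughout, for Hepatotoxicity (granulomatous hepatitis): value is a count of indexed literature references reporting granulomatous liver disease confirmed by histopathology.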
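Throughout, for Hepatotoxicity (malignant tumour): malignant tumour confirmed by histopathology, value gives the count of indexed literature references reporting it.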
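Throughout, for Hepatotoxicity (severe hepatitis): human clinical data: severe hepatitis, meaning potentially life-threatening liver failure or clinically observed cases, the value counts how many indexed literature references report it.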
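Throughout, for Hepatotoxicity (steatosis): steatosis confirmed by histopathology, value is the count of indexed references.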

SMILES | Hepatotoxicity (successful reintroduction) [3] | Hepatotoxicity (time to onset) [4] | Hepatotoxicity (acute) [6] | Hepatotoxicity (benign tumour) [8] | Hepatotoxicity (moderate) [10] | Hepatotoxicity (association with vascular disease) [11] | Hepatotoxicity (steatosis) [12] | Hepatotoxicity (malignant tumour) [13] | Hepatotoxicity (chronic liver disease) [15] | Hepatotoxicity (cirrhosis) [16] | Hepatotoxicity (moderate) [1] [%] | Hepatotoxicity (acute) [2] [%] | Hepatotoxicity (cytolytic) [5] | Hepatotoxicity (severe hepatitis) [7] | Hepatotoxicity (granulomatous hepatitis) [9] | Hepatotoxicity (choleostasis) [14] | further results
CN(C)C(=N)N=C(N)N [METFORMIN] | yes | 1 week - 17 months | 10 | 0 | 1 | 0 | 0 | 0 | 0 | 0 |  |  |  |  |  |  | Hepatotoxicity (moderate) ([1]; Liver): 0%; Hepatotoxicity (acute) ([2]; Liver): 0%; Hepatotoxicity (cytolytic) ([5]; Liver): 3; Hepatotoxicity (severe hepatitis) ([7]; Liver): 0; Hepatotoxicity (granulomatous hepatitis) ([9]; Liver): 0; Hepatotoxicity (choleostasis) ([14]; Liver): 6
CC(=O)O[C@H]1CC[C@H]2[C@@H]3CC[C@H]4CC(=O)C=C(C)[C@]4(C)[C@H]3CC[C@]12C [METHENOLONE ACETATE] | yes | 1 month - 15 years | 5 | 1 | 1 | 0 | 0 | 1 | 0 | 0 | 0 | 0 | 0 | 0 | 0 | 0 | 
COC(=O)C(c1ccccc1)C1CCCCN1 (centres undefined) [METHYLPHENIDATE] | yes | 2 days - 2 months | 4 | 0 | 1 | 0 | 0 | 0 | 0 | 0 | 0 | 0 | 3 | 2 | 0 | 0 | 
C[C@H]1C[C@@H]2[C@H]([C@@H](O)C[C@@]3(C)[C@H]2CC[C@]3(O)C(=O)CO)[C@@]2(C)C=CC(=O)C=C12 [METHYLPREDNISOLONE] | yes | 40 days | 2 | 0 | 0 | 0 | 2 | 0 | 0 | 0 | 0 | 0 | 2 | 0 | 0 | 0 | 
Nc1cc(N2CCCCC2)nc(N)[n+]1[O-] [MINOXIDIL] | yes | 3 days - 1 year | 0 | 0 | 5 | 0 | 0 | 0 | 0 | 0 | 4.3 | 0 | 0 | 0 | 0 | 0 | 
CCc1c(C)[nH]c2c1C(=O)C(CN1CCOCC1)CC2 (centres undefined) [MOLINDONE] | yes | 1 month | 1 | 0 | 2 | 0 | 0 | 0 | 0 | 0 | 0 | 0 | 1 | 0 | 0 | 1 | 
CN(C)Cc1ccc(CSCCN/C(=C\[N+](=O)[O-])NCc2ccc3c(c2)OCO3)o1 [NIPEROTIDINE] | yes | 15 days - 7 months | 2 | 0 | 0 | 0 | 0 | 0 | 0 | 0 |  |  |  |  |  |  | Hepatotoxicity (moderate) ([1]; Liver): 0%; Hepatotoxicity (acute) ([2]; Liver): 0%; Hepatotoxicity (cytolytic) ([5]; Liver): 2; Hepatotoxicity (severe hepatitis) ([7]; Liver): 2; Hepatotoxicity (granulomatous hepatitis) ([9]; Liver): 0; Hepatotoxicity (choleostasis) ([14]; Liver): 2
CC[C@]1(O)CC[C@H]2[C@@H]3CCC4=CC(=O)CC[C@@H]4[C@H]3CC[C@@]21C [NORETHANDROLONE] | yes | 2 weeks - 4.5 years | 11 | 2 | 3 | 3 | 0 | 1 | 0 | 0 | 24 | 0 | 0 | 2 | 0 | 6 | 
Cc1nccn1CC1CCc2c(c3ccccc3n2C)C1=O (centres undefined) [ONDANSETRON] | yes | 8 days - 9 days | 1 | 0 | 23 | 0 | 0 | 0 | 0 | 0 | 33 | 0 | 0 | 0 | 0 | 0 | 
C[C@]12C/C(=C/O)C(=O)C[C@@H]1CC[C@@H]1[C@@H]2CC[C@@]2(C)[C@H]1CC[C@]2(C)O [OXYMETHOLONE] | yes | 11 days - 15 years | 10 | 11 | 2 | 12 | 0 | 14 | 0 | 0 | 50 | 52.8 | 1 | 2 | 0 | 3 | 
C1CNCCN1 [PIPERAZINE] | yes | 3 weeks - 1 month | 2 | 0 | 0 | 0 | 0 | 0 | 0 | 0 |  |  |  |  |  |  | Hepatotoxicity (moderate) ([1]; Liver): 0%; Hepatotoxicity (acute) ([2]; Liver): 0%; Hepatotoxicity (cytolytic) ([5]; Liver): 1; Hepatotoxicity (severe hepatitis) ([7]; Liver): 0; Hepatotoxicity (granulomatous hepatitis) ([9]; Liver): 0; Hepatotoxicity (choleostasis) ([14]; Liver): 2
CCCN(CCC)S(=O)(=O)c1ccc(C(=O)O)cc1 [PROBENECID] | yes | 2 years | 1 | 0 | 0 | 0 | 0 | 0 | 0 | 0 | 0 | 0 | 1 | 1 | 1 | 0 | 
CC(NCCc1ccc(O)cc1)C(O)c1ccc(O)cc1 (centres undefined) [RITODRINE] | yes | 4 days - 9 weeks | 6 | 0 | 6 | 0 | 0 | 0 | 0 | 0 | 40 | 0.9 | 6 | 0 | 0 | 1 | 
O=C1NS(=O)(=O)c2ccccc21 [SACCHARIN] | yes | 2 weeks - 2 months | 1 | 0 | 0 | 0 | 0 | 0 | 0 | 0 |  |  |  |  |  |  | Hepatotoxicity (moderate) ([1]; Liver): 0%; Hepatotoxicity (acute) ([2]; Liver): 0%; Hepatotoxicity (cytolytic) ([5]; Liver): 1; Hepatotoxicity (severe hepatitis) ([7]; Liver): 0; Hepatotoxicity (granulomatous hepatitis) ([9]; Liver): 0; Hepatotoxicity (choleostasis) ([14]; Liver): 0

— ChEMBL document CHEMBL3137667, “[Drug-induced liver injury; fourteenth updated edition of the bibliographic database of liver injuries and related drugs]” (Gastroenterol Clin Biol, 2004)
